From article PMC5767129 (European journal of pharmacology, 2017)

Experiments:
[1] = target: T1, human P2X7 receptor (Homo sapiens, UniProt Q99572); assay: Radioligand saturation binding assay with [^123I]TZ6019
T1 sequence (Q99572 1-595): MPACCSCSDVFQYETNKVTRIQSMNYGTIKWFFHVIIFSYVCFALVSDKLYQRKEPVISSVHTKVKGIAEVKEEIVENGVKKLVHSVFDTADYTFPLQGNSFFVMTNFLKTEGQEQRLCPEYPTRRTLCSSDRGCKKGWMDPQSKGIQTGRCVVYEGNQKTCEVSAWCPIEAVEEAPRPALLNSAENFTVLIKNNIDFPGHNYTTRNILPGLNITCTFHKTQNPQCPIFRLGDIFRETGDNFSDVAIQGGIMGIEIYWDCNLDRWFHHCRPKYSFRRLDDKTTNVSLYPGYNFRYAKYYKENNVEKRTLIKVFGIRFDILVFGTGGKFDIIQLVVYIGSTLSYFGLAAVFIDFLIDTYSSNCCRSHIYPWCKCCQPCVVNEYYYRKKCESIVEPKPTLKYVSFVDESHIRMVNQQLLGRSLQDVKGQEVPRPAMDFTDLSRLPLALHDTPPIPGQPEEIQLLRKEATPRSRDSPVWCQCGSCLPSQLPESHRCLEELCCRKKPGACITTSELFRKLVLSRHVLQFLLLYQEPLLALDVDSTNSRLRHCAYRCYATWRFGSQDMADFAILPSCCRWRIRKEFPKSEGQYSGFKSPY

[2] = target: T1, human P2X7 receptor; assay: Radioligand competition binding assay using [^123I]TZ6019
[3] = target: T1, human P2X7 receptor; assay: Ethidium bromide uptake fluorescence assay; type: cell-based
[4] = target: T1, human P2X7 receptor; assay: Radioligand competition binding assay using [^3H]A804598
[5] = target: T2, P2X7 receptor (Mus musculus, UniProt Q9Z1M0); assay: In vitro autoradiography of P301S and wild type mouse brain slices; type: binding; details: for P2X7 receptor expression quantified by autoradiography: mean ± S.D., n = 3
T2 sequence (Q9Z1M0 1-595): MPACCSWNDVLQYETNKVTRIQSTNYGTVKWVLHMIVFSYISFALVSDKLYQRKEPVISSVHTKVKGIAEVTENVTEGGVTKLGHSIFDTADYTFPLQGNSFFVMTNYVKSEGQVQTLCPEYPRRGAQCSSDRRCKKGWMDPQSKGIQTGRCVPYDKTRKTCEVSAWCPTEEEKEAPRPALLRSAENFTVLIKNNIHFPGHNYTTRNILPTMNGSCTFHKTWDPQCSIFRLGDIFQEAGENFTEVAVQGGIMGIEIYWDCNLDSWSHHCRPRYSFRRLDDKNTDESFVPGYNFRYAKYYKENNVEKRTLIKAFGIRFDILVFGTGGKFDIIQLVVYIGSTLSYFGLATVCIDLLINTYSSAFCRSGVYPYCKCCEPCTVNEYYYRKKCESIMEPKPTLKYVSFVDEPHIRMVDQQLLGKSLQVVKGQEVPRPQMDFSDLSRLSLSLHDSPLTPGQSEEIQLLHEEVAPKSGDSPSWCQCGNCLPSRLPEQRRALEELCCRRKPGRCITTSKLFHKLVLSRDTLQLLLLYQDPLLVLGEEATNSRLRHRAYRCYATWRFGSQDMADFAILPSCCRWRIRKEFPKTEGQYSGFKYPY

[6] = target: T1, human P2X7 receptor; details: carbon-11 labeled radioligand; ref Gao et al., 2015; Ory et al., 2016; cited from earlier work
[7] = tested on: rodents P2X7 receptor; details: carbon-11 labeled radioligand; ref Gao et al., 2015; Ory et al., 2016; cited from earlier work

Q: For `O=C(NCc1cccc(C(F)(F)F)c1Cl)[C@@H]1CCC(=O)N1C/C=C/I` [[^123I]TZ6019], which Kd ([1]; read-out: Kd (saturation binding), HEK-293-hP2X7R cells, one-site fit, n = 3) is on record?
A: Its Kd is 19.3 ± 2.8 nM.

Q: What does the source list for `O=C(NCc1cccc(C(F)(F)F)c1Cl)[C@@H]1CCC(=O)N1C/C=C/I` [TZ6019, (S,E)-N-(2-chloro-3-(trifluoromethyl)benzyl)-1-(3-iodoallyl)-5-oxopyrrolidine-2-carboxamide]?
A: IC50 [2]: 9.49 ± 1.4 nM; fold lower binding potency than GSK1482160 ([3]; ratio of ethidium bromide assay IC50 values): 5 fold; IC50 [4]: 12.9 ± 2 nM

Q: For `O=C(NCc1cccc(C(F)(F)F)c1Cl)[C@@H]1CCC(=O)N1C/C=C/[123I]` [[^123I]TZ6019], which “specific binding as fraction of total binding” value ([1]; saturation binding, nonspecific defined with 100 µM GSK1482160) is on record?
A: The value was “approximately 40%”.

Q: What about the “fold higher autoradiography binding in P301S than wild type mice” value ([5]; Cortex) of the same compound?
A: The value was 2.4 fold.

Q: And the “P2X7 receptor expression quantified by autoradiography” value (“P2X7 receptor expression quantified” below) ([5]; Cortex, P301S mice)?
A: The value was 330.53 ± 91.08 PSL/mm^2.

Q: And the “P2X7 receptor expression quantified” value ([5]; Cortex, Wild type mice)?
A: The value was 135.23 ± 32.55 PSL/mm^2.

Q: And the “P2X7 receptor expression quantified” value ([5]; Hippocampus, P301S mice, 9-month-old)?
A: The value was 255.05 ± 10.90 PSL/mm^2.

Q: What about the “P2X7 receptor expression quantified” value ([5]; Hippocampus, Wild type mice, 9-month-old) of the same compound?
A: The value was 154.18 ± 16.14 PSL/mm^2.

Q: And the “P2X7 receptor expression quantified” value ([5]; Thalamus, P301S mice)?
A: The value was 337.98 ± 93.45 PSL/mm^2.

Q: What about the “P2X7 receptor expression quantified” value ([5]; Thalamus, Wild type mice) of the same compound?
A: Its value is 187.41 ± 61.02 PSL/mm^2.

Q: What about the “P2X7 receptor expression quantified” value ([5]; Total brain, P301S mice) of the same compound?
A: The value was 260.86 ± 48.93 PSL/mm^2.

Q: What about the “P2X7 receptor expression quantified” value ([5]; Total brain, Wild type mice) of the same compound?
A: The value was 193.05 ± 39.92 PSL/mm^2.

Q: And the “increase of binding in brain of P301S mice compared to wild type controls” value ([5]; brain, n = 3, p = 0.04)?
A: The value was 35%.

Q: With `CN1C(=O)CC[C@H]1C(=O)NCc1cccc(C(F)(F)F)c1Cl` [GSK1482160, reference compound] as the compound, how does the “binding to human P2X7 receptor” value [6] read?
A: The value was “tight binding”.

Q: And the IC50 [2]?
A: Its IC50 is 4.3 ± 0.9 nM.

Q: What about the “binding to rodents P2X7 receptor” value [7] of the same compound?
A: The value was “weak binding”.

Q: What about the IC50 [3] of the same compound?
A: Its IC50 is 2.1 ± 0.3 nM.

Q: And the IC50 [4]?
A: Its IC50 is 8.65 ± 1 nM.
